Tested on: fungi
Assay: Fungal growth on treated slices of French bread
Conditions: slice brushed on all sides with 1000 ppm Ag; 3 days in warm and humid atmosphere, 20-35° C.
Method: Slices of French bread from a local baker were used as substrates for fungal growth. • 1. Bread slice was brushed on all sides with the sol containing 1000 ppm Ag • 2. […] Bread slice was untreated.
The bread slices on a dinner plate were put in a plastic bag, which in turn was placed in a glassed-in porch where the temperature varied between 20 and 35° C. over the day.

silver nitrate [AgNO3 solution]
resistance of bread slice to fungi attack: affords some protection

From patent US9108854B2, “Biocidal colloidal dispersions of silica particles with silver ions adsorbed thereon” (PREBONA AB, priority 2009, dated 2015)
